The results in this text go back to US11993599B2, “Therapeutic compounds” (Genentech, Inc., priority 2021, dated 2024).

Molecules are shown by their SMILES.

Assay [1] has as its target T1, BRG1 (Homo sapiens, UniProt P51532).
T1 construct: either BRM primary antibody (Cell signaling Cat #11966) or BRG primary antibody (Abcam, ab 110641); endogenous in cells; host or cells: SW1573
Kind of assay: Immunofluorescence assay for BRG1 degradation in SW1573 cells. The class given is cell-based. The conditions noted are these: 20 hours incubation; for DC50: immunofluorescence mean nuclear signal, read-out: BRG1 IF Degradation IC50; for Dmax: SW1573, 20 h, normalized to a known degrader control, read-out: BRG1 IF Degradation Sinf (%). Put shortly: (§1)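 Cells seeded one day before dosing, exposed to compounds for 20 hours, then fixed, permeabilized, blocked and stained overnight at 4 °C with anti-BRM or anti-BRG1 antibody. Nuclear fluorescence intensity per cell, normalized to a degrader control, gave concentration-response curves fitted with a floating maximum.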

Assay [2] deals with BRM (Homo sapiens, UniProt P51531). In words: Immunofluorescence assay for BRM degradation in SW1573 cells. The class given is cell-based. Set-up: treated overnight at 4° C. with either BRM primary antibody (Cell signaling Cat #11966) or BRG primary antibody; endogenous in cells; host or cells: SW1573. The settings on record: 20 hours incubation; for DC50: immunofluorescence mean nuclear signal, read-out: BRM IF Degradation IC50; for BRM IF Degradation Sinf (%): normalized to a known degrader control. The essentials:
as §1

T1 sequence (P51532 whole entry): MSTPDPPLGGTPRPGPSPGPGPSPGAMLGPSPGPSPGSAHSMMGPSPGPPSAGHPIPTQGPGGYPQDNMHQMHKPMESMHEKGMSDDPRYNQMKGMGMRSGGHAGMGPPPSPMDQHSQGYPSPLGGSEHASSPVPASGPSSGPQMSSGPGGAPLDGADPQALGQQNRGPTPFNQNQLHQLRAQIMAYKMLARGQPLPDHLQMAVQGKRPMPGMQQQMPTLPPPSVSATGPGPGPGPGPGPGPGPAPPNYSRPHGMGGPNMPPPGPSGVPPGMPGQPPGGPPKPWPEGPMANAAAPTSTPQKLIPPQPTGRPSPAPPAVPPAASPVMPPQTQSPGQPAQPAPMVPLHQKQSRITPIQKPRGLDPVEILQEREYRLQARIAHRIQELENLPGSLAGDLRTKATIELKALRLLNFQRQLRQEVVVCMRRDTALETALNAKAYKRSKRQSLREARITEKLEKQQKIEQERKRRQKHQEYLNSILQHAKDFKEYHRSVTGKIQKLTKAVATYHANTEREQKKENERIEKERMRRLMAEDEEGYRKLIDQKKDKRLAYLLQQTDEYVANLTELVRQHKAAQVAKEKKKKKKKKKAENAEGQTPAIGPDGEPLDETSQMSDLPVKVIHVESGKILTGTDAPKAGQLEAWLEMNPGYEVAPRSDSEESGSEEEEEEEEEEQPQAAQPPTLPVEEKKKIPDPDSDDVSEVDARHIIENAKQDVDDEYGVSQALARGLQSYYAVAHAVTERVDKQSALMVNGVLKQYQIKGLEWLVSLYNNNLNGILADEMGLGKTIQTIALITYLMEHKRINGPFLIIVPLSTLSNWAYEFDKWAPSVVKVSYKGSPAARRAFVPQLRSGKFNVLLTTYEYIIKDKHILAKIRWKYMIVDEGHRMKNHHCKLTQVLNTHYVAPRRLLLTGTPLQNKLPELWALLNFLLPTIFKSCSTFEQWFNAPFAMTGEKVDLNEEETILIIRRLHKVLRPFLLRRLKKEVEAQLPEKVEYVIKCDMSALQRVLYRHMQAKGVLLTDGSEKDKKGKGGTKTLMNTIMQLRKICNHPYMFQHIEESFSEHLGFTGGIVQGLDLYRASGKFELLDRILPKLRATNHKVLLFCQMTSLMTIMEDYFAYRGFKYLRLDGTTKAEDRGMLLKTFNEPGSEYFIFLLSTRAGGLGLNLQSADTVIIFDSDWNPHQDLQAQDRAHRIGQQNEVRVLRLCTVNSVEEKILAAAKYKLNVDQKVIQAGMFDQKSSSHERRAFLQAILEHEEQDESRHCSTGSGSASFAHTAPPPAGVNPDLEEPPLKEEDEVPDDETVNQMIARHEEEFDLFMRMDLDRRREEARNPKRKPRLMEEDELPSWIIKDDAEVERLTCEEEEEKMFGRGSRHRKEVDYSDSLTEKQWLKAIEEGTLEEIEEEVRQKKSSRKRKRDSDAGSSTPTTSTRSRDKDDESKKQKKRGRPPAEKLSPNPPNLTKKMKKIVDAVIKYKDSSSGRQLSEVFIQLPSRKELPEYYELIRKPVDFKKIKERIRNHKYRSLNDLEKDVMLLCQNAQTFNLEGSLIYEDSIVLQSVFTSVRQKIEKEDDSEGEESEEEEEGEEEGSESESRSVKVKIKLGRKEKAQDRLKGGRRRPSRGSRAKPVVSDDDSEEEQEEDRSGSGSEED
Sequence of BRM (P51531 whole entry): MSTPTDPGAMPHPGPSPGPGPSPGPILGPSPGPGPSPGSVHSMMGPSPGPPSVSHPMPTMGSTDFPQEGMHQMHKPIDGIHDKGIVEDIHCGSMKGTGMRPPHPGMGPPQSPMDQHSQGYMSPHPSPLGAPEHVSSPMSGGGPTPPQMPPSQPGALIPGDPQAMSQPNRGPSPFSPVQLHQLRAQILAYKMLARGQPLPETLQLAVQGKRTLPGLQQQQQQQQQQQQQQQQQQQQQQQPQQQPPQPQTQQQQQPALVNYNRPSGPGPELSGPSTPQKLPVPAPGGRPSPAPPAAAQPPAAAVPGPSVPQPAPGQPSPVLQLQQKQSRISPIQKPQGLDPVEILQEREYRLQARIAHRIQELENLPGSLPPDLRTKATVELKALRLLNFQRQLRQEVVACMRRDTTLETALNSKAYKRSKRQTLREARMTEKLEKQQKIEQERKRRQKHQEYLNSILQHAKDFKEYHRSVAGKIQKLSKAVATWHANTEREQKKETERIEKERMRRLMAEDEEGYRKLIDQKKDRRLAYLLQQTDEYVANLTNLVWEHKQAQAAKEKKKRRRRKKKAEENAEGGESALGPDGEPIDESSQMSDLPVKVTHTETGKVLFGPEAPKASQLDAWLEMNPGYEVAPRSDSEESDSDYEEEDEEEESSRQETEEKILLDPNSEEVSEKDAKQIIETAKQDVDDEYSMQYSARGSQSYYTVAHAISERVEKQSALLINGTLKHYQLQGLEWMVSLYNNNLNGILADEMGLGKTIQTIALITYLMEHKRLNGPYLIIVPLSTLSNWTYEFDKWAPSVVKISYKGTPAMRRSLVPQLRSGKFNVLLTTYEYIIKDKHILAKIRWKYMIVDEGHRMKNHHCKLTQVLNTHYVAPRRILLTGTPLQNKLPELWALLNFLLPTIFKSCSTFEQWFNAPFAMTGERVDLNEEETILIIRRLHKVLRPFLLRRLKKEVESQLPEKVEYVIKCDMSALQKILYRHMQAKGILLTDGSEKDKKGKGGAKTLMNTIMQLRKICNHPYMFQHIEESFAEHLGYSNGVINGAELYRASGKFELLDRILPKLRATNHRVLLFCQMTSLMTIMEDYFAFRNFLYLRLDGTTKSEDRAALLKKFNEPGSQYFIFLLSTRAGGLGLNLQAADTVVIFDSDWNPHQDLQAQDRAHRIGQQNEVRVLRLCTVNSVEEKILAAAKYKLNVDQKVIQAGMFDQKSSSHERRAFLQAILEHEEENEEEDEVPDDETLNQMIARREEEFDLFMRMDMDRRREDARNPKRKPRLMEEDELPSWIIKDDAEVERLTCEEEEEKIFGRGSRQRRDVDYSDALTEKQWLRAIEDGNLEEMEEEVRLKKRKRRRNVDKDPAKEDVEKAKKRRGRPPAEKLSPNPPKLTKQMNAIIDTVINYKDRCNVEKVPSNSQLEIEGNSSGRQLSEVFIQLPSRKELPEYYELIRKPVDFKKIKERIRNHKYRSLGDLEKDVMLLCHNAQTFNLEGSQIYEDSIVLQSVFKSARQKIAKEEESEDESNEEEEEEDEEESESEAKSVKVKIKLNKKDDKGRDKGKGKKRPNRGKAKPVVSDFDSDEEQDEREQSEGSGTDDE

`N#CC1CCCN(CC#Cc2cc(N3C4CCC3CN(c3cc(-c5ccccc5O)nnc3N)C4)ccn2)C1` (centres unmarked) [Compound 120, 1-[3-[4-[3-[3-amino-6-(2-hydroxyphenyl)pyridazin-4-yl]-3,8-diazabicyclo[3.2.1]octan-8-yl]-2-pyridyl]prop-2-ynyl]piperidine-3-carbonitrile]: in assay [1], the DC50 fell in the range of 10 to 100 nM and the Dmax lay within 30 to 70%. Further, in assay [2], the DC50 lay in the range of 10 to 100 nM and the “BRM IF Degradation Sinf (%)” value is reported as “E (E indicates −30%-−70%)”.
For `Nc1nnc(-c2ccccc2O)cc1N1CC2CCC(C1)N2c1ccnc(C#CCN2C3CCC2(CO)CC3)c1` [Compound 121, 2-[6-amino-5-[8-[2-[3-[1-(hydroxymethyl)-7-azabicyclo[2.2.1]heptan-7-yl]prop-1-ynyl]-4-pyridyl]-3,8-diazabicyclo[3.2.1]octan-3-yl]pyridazin-3-yl]phenol], in assay [1], the DC50 is more than 100 nM and the Dmax lay within 30 to 70%. Moreover, in assay [2], the DC50 was less than 10 nM and the “BRM IF Degradation Sinf (%)” value is on record as “E (E indicates −30%-−70%)”.
Take `CNC(=O)[C@H]1CCN(CC#Cc2cc(N3C4CCC3CN(c3cc(-c5ccccc5O)nnc3N)C4)ccn2)C1` [Compound 122, (3S)-1-[3-[4-[3-[3-amino-6-(2-hydroxyphenyl)pyridazin-4-yl]-3,8-diazabicyclo[3.2.1]octan-8-yl]-2-pyridyl]prop-2-ynyl]-N-methyl-pyrrolidine-3-carboxamide]: in assay [1], the DC50 lay within 10 to 100 nM and the Dmax was in the range of 30 to 70%. Moreover, in assay [2], the DC50 was in the range of 10 to 100 nM and the “BRM IF Degradation Sinf (%)” value is given as “F (F indicates −71%-−120%)”.
Turning to `Nc1nnc(-c2ccccc2O)cc1N1CC2CCC(C1)N2c1ccnc(C#CCN2C[C@@H]3C[C@H]2[C@H]2C[C@@H]32)c1` [Compound 123, 2-[6-amino-5-[8-[2-[3-[(1R,2S,4S,5S)-6-azatricyclo[3.2.1.02,4]octan-6-yl]prop-1-ynyl]-4-pyridyl]-3,8-diazabicyclo[3.2.1]octan-3-yl]pyridazin-3-yl]phenol], in assay [1], the DC50 was less than 10 nM and the Dmax lay in the range of 30 to 70%. Moreover, in assay [2], the DC50 is less than 10 nM and the “BRM IF Degradation Sinf (%)” value is recorded as “E (E indicates −30%-−70%)”.
Consider `Nc1nnc(-c2ccccc2O)cc1N1CC2CCC(C1)N2c1ccnc(C#CCN2CCOC3(CC3)C2)c1` [Compound 124, 2-[6-amino-5-[8-[2-[3-(4-oxa-7-azaspiro[2.5]octan-7-yl)prop-1-ynyl]-4-pyridyl]-3,8-diazabicyclo[3.2.1]octan-3-yl]pyridazin-3-yl]phenol], for which, in assay [1], the DC50 is more than 100 nM. In assay [2], the DC50 was less than 10 nM and the “BRM IF Degradation Sinf (%)” value was “E (E indicates −30%-−70%)”.
On to `Nc1nnc(-c2ccccc2O)cc1N1CC2CCC(C1)N2c1ccnc(C#CCN2CC3CCCC2C3)c1` (centres unmarked) [Compound 125, 2-[6-amino-5-[8-[2-[3-(6-azabicyclo[3.2.1]octan-6-yl)prop-1-ynyl]-4-pyridyl]-3,8-diazabicyclo[3.2.1]octan-3-yl]pyridazin-3-yl]phenol], for which, in assay [1], the DC50 was less than 10 nM and the Dmax was in the range of 30 to 70%. In assay [2], the DC50 is less than 10 nM and the “BRM IF Degradation Sinf (%)” value is “E (E indicates −30%-−70%)”.
`Nc1nnc(-c2ccccc2O)cc1N1CC2CCC(C1)N2c1ccnc(C#CCN2CC3CC(C2)C3O)c1` (centres unmarked) [Compound 126, 3-[3-[4-[3-[3-amino-6-(2-hydroxyphenyl)pyridazin-4-yl]-3,8-diazabicyclo[3.2.1]octan-8-yl]-2-pyridyl]prop-2-ynyl]-3-azabicyclo[3.1.1]heptan-6-ol]: in assay [1], the DC50 was less than 10 nM and the Dmax was 0 to 30%. Also, in assay [2], the DC50 was less than 10 nM and the “BRM IF Degradation Sinf (%)” value is reported as “E (E indicates −30%-−70%)”.
As for `Nc1nnc(-c2ccccc2O)cc1N1CC2CCC(C1)N2c1ccnc(C#CCN2CCC3(CCCC3)C2)c1` [Compound 127, 2-[6-amino-5-[8-[2-[3-(2-azaspiro[4.4]nonan-2-yl)prop-1-ynyl]-4-pyridyl]-3,8-diazabicyclo[3.2.1]octan-3-yl]pyridazin-3-yl]phenol], in assay [1], the DC50 was less than 10 nM and the Dmax lay in the range of 30 to 70%. For the same molecule, in assay [2], the DC50 is less than 10 nM and the “BRM IF Degradation Sinf (%)” value is listed as “E (E indicates −30%-−70%)”.
`CO[C@H]1CCN(CC#Cc2cc(N3C4CCC3CN(c3cc(-c5ccccc5O)nnc3N)C4)ccn2)C1` [Compound 128, 2-[6-amino-5-[8-[2-[3-[(3S)-3-methoxypyrrolidin-1-yl]prop-1-ynyl]-4-pyridyl]-3,8-diazabicyclo[3.2.1]octan-3-yl]pyridazin-3-yl]phenol]: in assay [1], the DC50 is less than 10 nM and the Dmax is 30 to 70%. Further, in assay [2], the DC50 is 10 to 100 nM and the “BRM IF Degradation Sinf (%)” value is listed as “F (F indicates −71%-−120%)”.
In the case of `Nc1nnc(-c2ccccc2O)cc1N1CC2CCC(C1)N2c1ccnc(C#CCN2CCC3(CCC3)C2)c1` [Compound 129, 2-[6-amino-5-[8-[2-[3-(6-azaspiro[3.4]octan-6-yl)prop-1-ynyl]-4-pyridyl]-3,8-diazabicyclo[3.2.1]octan-3-yl]pyridazin-3-yl]phenol], in assay [1], the DC50 is less than 10 nM and the Dmax lay in the range of 30 to 70%. For the same molecule, in assay [2], the DC50 was less than 10 nM and the “BRM IF Degradation Sinf (%)” value is reported as “E (E indicates −30%-−70%)”.
In the case of `Nc1nnc(-c2ccccc2O)cc1N1CC2CCC(C1)N2c1ccnc(C#CCN2C[C@@H]3C[C@H]2C[C@H]3O)c1` [Compound 130, (1S,4S,5R)-2-[3-[4-[3-[3-amino-6-(2-hydroxyphenyl)pyridazin-4-yl]-3,8-diazabicyclo[3.2.1]octan-8-yl]-2-pyridyl]prop-2-ynyl]-2-azabicyclo[2.2.1]heptan-5-ol], in assay [1], the DC50 lay in the range of 10 to 100 nM and the Dmax fell in the range of 30 to 70%. In assay [2], the DC50 was less than 10 nM and the “BRM IF Degradation Sinf (%)” value was “E (E indicates −30%-−70%)”.
The matching figures for `Nc1nnc(-c2ccccc2O)cc1N1CC2CCC(C1)N2c1ccnc(C#CCN2CCC(F)CC2)c1` [Compound 131, 2-[6-amino-5-[8-[2-[3-(4-fluoro-1-piperidyl)prop-1-ynyl]-4-pyridyl]-3,8-diazabicyclo[3.2.1]octan-3-yl]pyridazin-3-yl]phenol]: less than 10 nM, 0 to 30%, less than 10 nM and “E (E indicates −30%-−70%)”.
`Nc1nnc(-c2ccccc2O)cc1N1CC2CCC(C1)N2c1ccnc(C#CCN2CC3CC2CO3)c1` (centres unmarked) [Compound 132, 2-[6-amino-5-[8-[2-[3-(2-oxa-5-azabicyclo[2.2.1]heptan-5-yl)prop-1-ynyl]-4-pyridyl]-3,8-diazabicyclo[3.2.1]octan-3-yl]pyridazin-3-yl]phenol]: in assay [1], the DC50 was less than 10 nM and the Dmax was 30 to 70%. Moreover, in assay [2], the DC50 was less than 10 nM and the “BRM IF Degradation Sinf (%)” value is “E (E indicates −30%-−70%)”.
Regarding `Nc1nnc(-c2ccccc2O)cc1N1CC2CCC(C1)N2c1ccnc(C#CCN2CCC(F)C2)c1` (centres unmarked) [Compound 133, 2-[6-amino-5-[8-[2-[3-(3-fluoropyrrolidin-1-yl)prop-1-ynyl]-4-pyridyl]-3,8-diazabicyclo[3.2.1]octan-3-yl]pyridazin-3-yl]phenol], in assay [1], the DC50 is less than 10 nM and the Dmax lay in the range of 0 to 30%. In assay [2], the DC50 was less than 10 nM and the “BRM IF Degradation Sinf (%)” value was “E (E indicates −30%-−70%)”.
`Nc1nnc(-c2ccccc2O)cc1N1CC2CCC(C1)N2c1ccnc(C#CCN2CCCC(CO)C2)c1` (centres unmarked) [Compound 134, 2-[6-amino-5-[8-[2-[3-[3-(hydroxymethyl)-1-piperidyl]prop-1-ynyl]-4-pyridyl]-3,8-diazabicyclo[3.2.1]octan-3-yl]pyridazin-3-yl]phenol]: in assay [1], the DC50 is 10 to 100 nM and the Dmax is 30 to 70%. In addition, in assay [2], the DC50 lay in the range of 10 to 100 nM and the “BRM IF Degradation Sinf (%)” value is “E (E indicates −30%-−70%)”.
Regarding `CC1(C)CN(CC#Cc2cc(N3C4CCC3CN(c3cc(-c5ccccc5O)nnc3N)C4)ccn2)C1` [Compound 135, 2-[6-amino-5-[8-[2-[3-(3,3-dimethylazetidin-1-yl)prop-1-ynyl]-4-pyridyl]-3,8-diazabicyclo[3.2.1]octan-3-yl]pyridazin-3-yl]phenol], in assay [1], the DC50 was less than 10 nM and the Dmax lay within 30 to 70%. In assay [2], the DC50 was less than 10 nM and the “BRM IF Degradation Sinf (%)” value is “E (E indicates −30%-−70%)”.
Consider `Nc1nnc(-c2ccccc2O)cc1N1CC2CCC(C1)N2c1ccnc(C#CCN2CCC3(CC2)CC3)c1` [Compound 136, 2-(5-(8-(2-(3-(6-azaspiro[2.5]octan-6-yl)prop-1-yn-1-yl)pyridin-4-yl)-3,8-diazabicyclo[3.2.1]octan-3-yl)-6-aminopyridazin-3-yl)phenol], for which, in assay [1], the DC50 was less than 10 nM and the Dmax lay in the range of 30 to 70%. Also, in assay [2], the DC50 is less than 10 nM and the “BRM IF Degradation Sinf (%)” value is “E (E indicates −30%-−70%)”.
On to `Nc1nnc(-c2ccccc2O)cc1N1CC2CCC(C1)N2c1ccnc(C#CCN2CC3CC3(CO)C2)c1` (centres unmarked) [Compound 137, 2-[6-amino-5-[8-[2-[3-[1-(hydroxymethyl)-3-azabicyclo[3.1.0]hexan-3-yl]prop-1-ynyl]-4-pyridyl]-3,8-diazabicyclo[3.2.1]octan-3-yl]pyridazin-3-yl]phenol], for which, in assay [1], the DC50 was less than 10 nM and the Dmax was 30 to 70%. In addition, in assay [2], the DC50 was less than 10 nM and the “BRM IF Degradation Sinf (%)” value is on record as “E (E indicates −30%-−70%)”.
